target: T1, HM74A (Homo sapiens, UniProt Q8TDS4); assay: Secondary fluorescent calcium indicator assay (FLIPR); format: cell-based; conditions: HEK-293 cells stably expressing HM74A and chimeric G protein Gqi9; % stimulation of maximal nicotinic acid response (100 μM)
T1 construct: expressed in transfected cells; pcDNA3.1 vectors; co-expressing chimeric G protein Gqi9
Protocol: Secondary Fluorescent Calcium Indicator Assay (FLIPR)
HEK-293 cells were grown in tissue culture medium (DMEM/Nut mix F12 Medium with Glutamax I (Invitrogen), containing 10% FBS) at 37° C. in a 5% CO2 atmosphere. These cells were cultured in 6-well dishes at 3×10^5 cells/well and double transfected with DNA vectors (pcDNA3.1, Invitrogen) expressing either HM74A or HM74 and the chimeric G protein Gqi9. Two days after transfection the wells were combined and plated in 150 cm^2 flasks, in the presence of 50 μg/ml Hygromycin (Invitrogen) and 500 μg/ml Geneticin (Gibco). Fourteen days after plating, colonies were picked, expanded and analyzed for expression using a functional assay (FLIPR). Stable transfected HEK-293 cells expressing either HM74A or HM74 and the chimeric G protein Gqi9 were plated at 50,000 cells/well in black 96-well plates with clear bottom (Costar) and cultured to confluency overnight in growth media (DMEM/Nut mix F12 Medium with Glutamax I (Invitrogen), containing 10% FBS) at 37° C. in a humidified cell incubator containing 5% CO2. Growth media was aspirated and replaced with 100 μl of 1×FLIPR Calcium Assay Dye (Molecular Devices) in Hank's balanced salt solution (HBSS) containing 10 mM HEPES, and […] probenecid (Sigma), for 1 hour at 37° C. Cell plates were transferred to a FLIPR unit (Molecular Devices), and 50 μl of 3× compound dilution were added. Fluorescence emissions were measured and the effects of compounds were expressed as % stimulation of maximal nicotinic acid response (100 μM). Sigmoidal curves were fitted using the XLfit3 program (ID Business Solutions Ltd. UK) and EC50 values determined.

T1 sequence (Q8TDS4 whole entry): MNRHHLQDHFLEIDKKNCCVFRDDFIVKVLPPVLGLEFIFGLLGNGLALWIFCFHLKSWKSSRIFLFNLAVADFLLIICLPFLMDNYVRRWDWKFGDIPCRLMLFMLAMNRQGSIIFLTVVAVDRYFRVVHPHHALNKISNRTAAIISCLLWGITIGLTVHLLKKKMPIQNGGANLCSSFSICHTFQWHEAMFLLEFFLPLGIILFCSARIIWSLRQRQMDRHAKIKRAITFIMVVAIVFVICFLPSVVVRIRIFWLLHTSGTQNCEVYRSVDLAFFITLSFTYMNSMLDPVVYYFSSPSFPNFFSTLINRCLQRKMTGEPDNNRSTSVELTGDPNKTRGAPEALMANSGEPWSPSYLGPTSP

| EC50 [nM] | Compound |
| --- | --- |
| 131 | O=C(COc1ccc(-c2ccc(F)cc2)cn1)Nc1cscc1C(=O)O [Example 11, 4-{2-[5-(4-Fluoro-phenyl)-pyridin-2-yloxy]-acetylamino}-thiophene-3-carboxylic acid] |
| 48.7 | O=C(COc1ccc(-c2ccccc2)cc1)Nc1cscc1C(=O)O [Example 2, 4-[2-(Biphenyl-4-yloxy)-acetylamino]-thiophene-3-carboxylic acid] |
| 225 | CC(C)(C)c1ccc(OCC(=O)Nc2cscc2C(=O)O)cc1 [Example 23, 4-[2-(4-tert-Butyl-phenoxy)-acetylamino]-thiophene-3-carboxylic acid] |

tested on: not given; assay: not given; conditions: not given

| melting point [°C] | Compound |
| --- | --- |
| 194 to 197 | COc1ccccc1-c1ccc(OCC(=O)Nc2cscc2C(=O)O)nc1 [Example 10, 4-{2-[5-(2-Methoxy-phenyl)-pyridin-2-yloxy]-acetylamino}-thiophene-3-carboxylic acid] |
| 258 to 264 | O=C(COc1ccc(Cl)c(Cl)c1)Nc1cscc1C(=O)O [Example 18, 4-[2-(3,4-Dichloro-phenoxy)-acetylamino]-thiophene-3-carboxylic acid] |
| 218 to 223 | O=C(COc1ccc(-c2ccccc2Cl)cn1)Nc1cscc1C(=O)O [Example 19, 4-{2-[5-(2-Chloro-phenyl)-pyridin-2-yloxy]-acetylamino}-thiophene-3-carboxylic acid] |

Continued, compound first:

| Compound | melting point [°C] |
| --- | --- |
| O=C(COc1ccc(-c2ccc(F)cc2)cc1)Nc1cscc1C(=O)O [Example 1, 4-[2-(4′-Fluoro-biphenyl-4-yloxy)-acetylamino]-thiophene-3-carboxylic acid] | 244 to 251 |
| COc1cccc(-c2ccc(OCC(=O)Nc3cscc3C(=O)O)cc2)c1 [Example 7, 4-[2-(3′-Methoxy-biphenyl-4-yloxy)-acetylamino]-thiophene-3-carboxylic acid] | 187 to 189 |
| Cc1ccccc1-c1ccc(OCC(=O)Nc2cscc2C(=O)O)cc1 [Example 5, 4-[2-(2′-Methyl-biphenyl-4-yloxy)-acetylamino]-thiophene-3-carboxylic acid] | 207 to 209 |
| O=C(COc1ccc(-c2ccccc2)cc1)Nc1cscc1C(=O)O [Example 2, 4-[2-(Biphenyl-4-yloxy)-acetylamino]-thiophene-3-carboxylic acid] | 247 to 251 |
| CC(=O)Nc1cccc(-c2ccc(OCC(=O)Nc3cscc3C(=O)O)cc2)c1 [Example 6, 4-[2-(3′-Acetylamino-biphenyl-4-yloxy)-acetylamino]-thiophene-3-carboxylic acid] | 250 to 253 |
| CC(=O)c1cccc(-c2ccc(OCC(=O)Nc3cscc3C(=O)O)cc2)c1 [Example 8, 4-[2-(3′-Acetyl-biphenyl-4-yloxy)-acetylamino]-thiophene-3-carboxylic acid] | 212 to 214 |
| O=C(COc1ccc(-c2cccc(Cl)c2)cc1)Nc1cscc1C(=O)O [Example 4, 4-[2-(3′-Chloro-biphenyl-4-yloxy)-acetylamino]-thiophene-3-carboxylic acid] | 216 to 218 |
| COc1ccccc1-c1ccc(OCC(=O)Nc2cscc2C(=O)O)cc1 [Example 3, 4-[2-(2′-Methoxy-biphenyl-4-yloxy)-acetylamino]-thiophene-3-carboxylic acid] | 196 to 199 |

Source: patent US7732452B2, “Thiophene derivatives which are HM74A agonists” (Hoffmann-La Roche Inc., priority 2005, dated 2010)
